Source: patent US20050288351A1, “Azaspiro compounds for the treatment of pain” (Schwarz Pharma AG, priority 2002, published 2005)

Key:
NMRl mice = assay: formalin test, in-vivo test for determining the analgesic efficacy; design: key to Mean deviation of the pain reaction compared to control (%) (n minutes after administration of formalin) 20-25′ / Mean deviation of the pain reaction compared to control (%) (n minutes after administration of formalin) 30-35′: (+): Intensified pain reaction; settings: for Mean deviation of the pain reaction compared to control (%) (n minutes after administration of formalin) 20-25′: 20-25′ after formalin; for Mean deviation of the pain reaction compared to control (%) (n minutes after administration of formalin) 30-35′: 30-35′ after formalin; for Mean deviation of the pain reaction compared to control (%) (n minutes after administration of formalin) 40-45′: 40-45′ after formalin; for average reduction of the pain reaction: after 30-45 minutes in the formalin test
Method: (§1) In each case, the maximum dosage selected for the concentration of azaspiro compounds was held, by a factor of about 2, below the toxic dose previously determined in the IRWIN test (Irwin, Psychopharmacologia 13 (1968) 222).
A reduction in the pain reaction is expressed in negative percentage figures.
The test was conducted as described by Wheeler-Aceto (Psychopharmacology 104, 1991, 35).
NMRl mice having a weight of 20-25 g were kept under controlled conditions (22±2° C., 40-70% relative humidity). 25 μl of a 5% […] solution was injected in the hind leg and the leg-licking frequency was then clocked for 5 minutes each at defined intervals (20, 30, 40 minutes).
(§2) First, the highest possible non-toxic concentration of the respective test substances that could be used was determined by an IRWIN test (Irwin, Psychopharmacologia 13, 1968, 222).
The test substances were dissolved in a physiological salt solution with 0.5% sodium carboxymethyl cellulose and were each measured in 1-3 dosages that had been applied intraperitoneally 10 minutes before administration of formalin. The comparative reference value was provided by a control excipient (10 ml/kg).
The test was performed in blind fashion on 10 mice per test series. The evaluation was based on a comparison of the treated animals with control excipients at three different times. […] Accordingly, an average 50% reduction of the pain reaction for the treated animals is obtained when in a defined period (e.g. 30-35′ after the formalin injection) the leg-licking duration (averaged over the 10 test animals) is reduced by 50% compared to the untreated animals. The statistical significance was determined using the Mann-Whitney U-test.

[1] = side effects above the maximum tolerable dosages (IRWIN test); format: in vivo
Method: as §1, with “FIG. 1 and Table 1 show the reaction of test animals (10 mice each) 20-45 minutes after the intraperitoneal administration of selected compounds. In” for “In”
as §2

[2] = 8 mg/kg i.p., Test series 1, n = 10 mice
[3] = 8 mg/kg i.p., Test series 2, n = 10 mice
[4] = 16 mg/kg i.p., Test series 1, n = 10 mice
[5] = 16 mg/kg i.p., Test series 2, n = 10 mice
[6] = 32 mg/kg i.p., Test series 1, n = 10 mice
[7] = 32 mg/kg i.p., Test series 2, n = 10 mice
[8] = 4 mg/kg i.p., Test series 2, n = 10 mice
[9] = 64 mg/kg i.p., Test series 1, n = 10 mice
[10] = 64 mg/kg i.p., Test series 2, n = 10 mice

Compound | Mean deviation of the pain reaction compared to control (%) (n minutes after administration of formalin) 20-25′ (NMRl mice; [4]) | Mean deviation of the pain reaction compared to control (%) (n minutes after administration of formalin) 30-35′ (NMRl mice; [4]) | Mean deviation of the pain reaction compared to control (%) (n minutes after administration of formalin) 40-45′ (NMRl mice; [4]) | Mean deviation of the pain reaction compared to control (%) (n minutes after administration of formalin) 20-25′ (NMRl mice; [5]) | Mean deviation of the pain reaction compared to control (%) (n minutes after administration of formalin) 30-35′ (NMRl mice; [5]) | Mean deviation of the pain reaction compared to control (%) (n minutes after administration of formalin) 20-25′ (NMRl mice; [6]) | Mean deviation of the pain reaction compared to control (%) (n minutes after administration of formalin) 30-35′ (NMRl mice; [6]) | Mean deviation of the pain reaction compared to control (%) (n minutes after administration of formalin) 40-45′ (NMRl mice; [6]) | Mean deviation of the pain reaction compared to control (%) (n minutes after administration of formalin) 20-25′ (NMRl mice; 32 mg/kg i.p., n = 10 mice) | Mean deviation of the pain reaction compared to control (%) (n minutes after administration of formalin) 30-35′ (NMRl mice; 32 mg/kg i.p., n = 10 mice) | Mean deviation of the pain reaction compared to control (%) (n minutes after administration of formalin) 40-45′ (NMRl mice; 32 mg/kg i.p., n = 10 mice) | further results
O=C1CC2(CCCCC2)CN1 [GBP-L, 2-azaspiro[4.5]decan-3-on, reference compound] | −74% | −40% | −41% | (+) | (+) | −64% | −15% | −46% |  |  |  | Mean deviation of the pain reaction compared to control (%) (n minutes after administration of formalin) 20-25′ (NMRl mice; [2]): −58%; Mean deviation of the pain reaction compared to control (%) (n minutes after administration of formalin) 30-35′ (NMRl mice; [2]): −18%; Mean deviation of the pain reaction compared to control (%) (n minutes after administration of formalin) 40-45′ (NMRl mice; [2]): −15%; Mean deviation of the pain reaction compared to control (%) (n minutes after administration of formalin) 20-25′ (NMRl mice; [3]): (+); Mean deviation of the pain reaction compared to control (%) (n minutes after administration of formalin) 30-35′ (NMRl mice; [3]): (+); Mean deviation of the pain reaction compared to control (%) (n minutes after administration of formalin) 20-25′ (NMRl mice; [7]): (+); Mean deviation of the pain reaction compared to control (%) (n minutes after administration of formalin) 30-35′ (NMRl mice; [7]): −10%; lethality [1]: significant lethality rate
S=C1CC2(CCCCC2)CN1 [SPM 0013, 2-azaspiro[4.5]decane-3-thion] |  |  |  |  |  |  |  |  | −99% | −32% | −4% | 
C1CCC2(CC1)CCNC2 [SPM 0019, 2-azaspiro[4.5]decane] |  |  |  |  |  |  |  |  | −67% | −21% | −26% | 
ON=C1CC2(CCCCC2)CN1 [SPM 6850, N-(2-azaspiro[4.5]decane-3)-oxim] |  |  |  |  |  |  |  |  | (+) | −50% | −38% | average reduction of the pain reaction (NMRl mice; 32 mg/kg per Table 1): 44%
S=C1CC2(CCCCCC2)CN1 [SPM 6868, 2-azaspiro[4.6]undecane-3-thion] | −62% | −29% | −49% | −42% | −30% | −83% | −0% | −24% |  |  |  | Mean deviation of the pain reaction compared to control (%) (n minutes after administration of formalin) 20-25′ (NMRl mice; [8]): −53%; Mean deviation of the pain reaction compared to control (%) (n minutes after administration of formalin) 30-35′ (NMRl mice; [8]): −7%; Mean deviation of the pain reaction compared to control (%) (n minutes after administration of formalin) 40-45′ (NMRl mice; [8]): −16%; Mean deviation of the pain reaction compared to control (%) (n minutes after administration of formalin) 40-45′ (NMRl mice; [5]): −31%; Mean deviation of the pain reaction compared to control (%) (n minutes after administration of formalin) 20-25′ (NMRl mice; [9]): −89%; Mean deviation of the pain reaction compared to control (%) (n minutes after administration of formalin) 30-35′ (NMRl mice; [9]): −67%; Mean deviation of the pain reaction compared to control (%) (n minutes after administration of formalin) 40-45′ (NMRl mice; [9]): −83%; Mean deviation of the pain reaction compared to control (%) (n minutes after administration of formalin) 20-25′ (NMRl mice; [10]): −100%; Mean deviation of the pain reaction compared to control (%) (n minutes after administration of formalin) 30-35′ (NMRl mice; [10]): −98%; Mean deviation of the pain reaction compared to control (%) (n minutes after administration of formalin) 40-45′ (NMRl mice; [10]): −93%; melting point: 132.3 °C
ON=C1CC2(CCCCCC2)CN1 [SPM 6873, N-(2-azaspiro[4.6]undecane-3)-oxim] |  |  |  |  |  |  |  |  |  |  |  | Mean deviation of the pain reaction compared to control (%) (n minutes after administration of formalin) 20-25′ (NMRl mice; 16 mg/kg i.p., n = 10 mice): (+); Mean deviation of the pain reaction compared to control (%) (n minutes after administration of formalin) 30-35′ (NMRl mice; 16 mg/kg i.p., n = 10 mice): −35%; Mean deviation of the pain reaction compared to control (%) (n minutes after administration of formalin) 40-45′ (NMRl mice; 16 mg/kg i.p., n = 10 mice): −38%; average reduction of the pain reaction (NMRl mice; 16 mg/kg per Table 1): 36.5%
